Experiment [1] has as its target Myc proto-oncogene protein (Homo sapiens, UniProt P01106). Briefly: Inhibition of recombinant His6-tagged c-Myc bHLH-ZIP domain (353 to 437 amino acid residues) (unknown origin) assessed as disruption of Myc-Max dimerization at 100 uM by electrophoretic mobility shift assay relative to control. A general note: In EMSA bound probe runs differently from free probe, usually more slowly.

A further experiment relates to Daudi. Description: Cytotoxicity against human Daudi cells assessed as growth inhibition after 3 to 5 days by MTT assay.
Another experiment deals with HL-60. Description: Cytotoxicity against human HL60 cells assessed as growth inhibition after 3 to 5 days by MTT assay. (In general: Tetrazolium dyes change colour on reduction, which living cells bring about.)
The next experiment addresses Protein max (Homo sapiens, UniProt P61244). Briefly: Inhibition of His6-tagged Max (151 amino acid residues) (unknown origin) assessed as disruption of Max-Max dimerization by electrophoretic mobility shift assay.
The nature of experiment [2]: Binding affinity to 5'-HEX-tagged double standard 22 bp 5'-hexachlorofluoresceine-CACCCGGTCACGTGGCCTACAC-3' (unknown origin) by PAGE analysis.

The source made the active and inactive calls. No cut-off for these calls is given here.

By inhibition is commonly meant the change of the read-out against control, counted positive when it falls. One may read the IC50 as the concentration at which inhibition is half-maximal.

Sequence of Myc proto-oncogene protein (P01106 whole entry, the tested form may be a part): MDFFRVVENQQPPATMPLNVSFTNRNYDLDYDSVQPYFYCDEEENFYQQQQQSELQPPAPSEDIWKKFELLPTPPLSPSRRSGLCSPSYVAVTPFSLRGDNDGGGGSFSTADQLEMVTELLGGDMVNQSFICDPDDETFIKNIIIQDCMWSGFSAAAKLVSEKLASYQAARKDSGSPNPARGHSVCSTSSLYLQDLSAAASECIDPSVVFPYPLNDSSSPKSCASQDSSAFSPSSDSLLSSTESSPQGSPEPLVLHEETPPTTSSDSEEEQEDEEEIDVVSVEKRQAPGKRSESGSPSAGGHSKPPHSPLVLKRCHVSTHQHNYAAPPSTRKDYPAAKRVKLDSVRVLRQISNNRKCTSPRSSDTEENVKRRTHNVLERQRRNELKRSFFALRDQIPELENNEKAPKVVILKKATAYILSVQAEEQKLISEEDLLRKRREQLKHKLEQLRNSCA
Sequence of Protein max (P61244 whole entry): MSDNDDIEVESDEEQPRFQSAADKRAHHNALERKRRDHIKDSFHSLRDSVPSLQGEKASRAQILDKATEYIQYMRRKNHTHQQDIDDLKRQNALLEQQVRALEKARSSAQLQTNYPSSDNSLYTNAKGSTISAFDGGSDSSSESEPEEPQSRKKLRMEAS

As for `Cc1ccccc1Nc1ccc([N+](=O)[O-])c2nonc12`, the inhibition in experiment [1] stood at 11%.
Same read-out and setting: next, `O=C(O)CCC(=O)Nc1ccc(Nc2ccccc2-c2ccccc2)c2nonc12`: 17%; `O=[N+]([O-])c1ccc(NCc2ccccc2)c2nonc12`: 0%.
On to `COC(=O)Nc1ccc(Nc2ccccc2-c2ccccc2)c2nonc12`, for which the inhibition in experiment [1] is 0%.
On the same count and under the same terms, the same measure for `Cc1ccc(Nc2ccc([N+](=O)[O-])c3nonc23)cc1`: 0%; for `O=C(Nc1ccc(Nc2ccccc2-c2ccccc2)c2nonc12)C(F)(F)F`: 25%; for `CC(=O)Nc1ccc(Nc2ccccc2-c2ccccc2)c2nonc12`: 2%.
Turning to `O=C(O)c1ccccc1Nc1ccc([N+](=O)[O-])c2nonc12`, in experiment [1], the inhibition is 8%.
The same measure, in the same setting: next, `O=C(O)COCC(=O)Nc1ccc(Nc2ccccc2-c2ccccc2)c2nonc12`: 33%; `O=[N+]([O-])c1ccc(Nc2ccccc2O)c2nonc12`: 13%; `O=[N+]([O-])c1ccc(Nc2ccccc2-c2ccccc2)cc1`: 0%.
Regarding `O=[N+]([O-])c1ccc(Nc2ccccc2-c2ccccc2)c2nonc12`, the inhibition in experiment [1] worked out at 38%. Moreover, the results for the IC50 with Daudi and in the experiment on HL-60 were 10 µM and 30 µM, respectively.
Take `O=[N+]([O-])c1ccc(N2CCCCC2)c2nonc12`: the inhibition in experiment [1] was found to be 10%.
On the same count and under the same terms, the same measure for `O=[N+]([O-])c1ccc(NC2CCCCC2)c2nonc12`: 11%; for `O=[N+]([O-])c1ccc(Oc2ccccc2-c2ccccc2)c2nonc12`: 36%.
Take `O=C(O)c1ccc(Nc2ccc([N+](=O)[O-])c3nonc23)cc1`: the IC50 on Protein max was greater than 100 µM; in the experiment with Daudi, 56 µM; in the experiment with HL-60, 184 µM. Also, the inhibition in experiment [1] is 93%. In experiment [2], the result was inactive.
With `O=[N+]([O-])c1ccc(Nc2ccccc2Br)c2nonc12`, the inhibition in experiment [1] was found to be 39%.
`COc1ccccc1Nc1ccc([N+](=O)[O-])c2nonc12`: the inhibition in experiment [1] stood at 0%.
Still for that read-out and setting: next, `O=[N+]([O-])c1ccc(Nc2cccc(-c3ccccc3)c2)c2nonc12`: 20%; `O=[N+]([O-])c1ccc(Nc2ccc(-c3ccccc3)cc2)c2nonc12`: 28%; `O=C(O)c1cccc(Nc2ccc([N+](=O)[O-])c3nonc23)c1`: 0%.
Take `O=[N+]([O-])c1ccc(Nc2ccccc2)c2nonc12`: the inhibition in experiment [1] was found to be 2%.

The record behind these values is ChEMBL document CHEMBL2311297 (Bioorg Med Chem Lett, 2013).
